Data taken from patent US20060193916A1, “Formulations of peptides for periodontal and dental treatments” (Acologix, Inc., priority 2005, published 2006).

Columns and labels:
[1] = system: primary mesenchimal stem cell culture; settings: in vitro; cited from earlier work
[2] = system: bone formation; settings: mice; cited from earlier work
[3] = system: alveolar bone extraction socket
From the text: One mandibular premolar per side was extracted. The intra-socket septae in the extraction socket were removed and the wound margins adapted.
Treatment Group I (10 dogs-5 per each time point 3 days and 28 days): • a.
Treatment Group 2 (10 dogs-5 per each time point 3 days and 28 days): • a.
Treatment Group 3 (6 dogs-3 per each time point 3 days and 28 days): • a. Right side: create gingival flap around #407; extract #407 (section with 7011); remove intra-socket septa with 5511; radiograph; measure socket depth; soak a collagen sponge in BMP2; apply collagen sponge to socket; close gingival flap with 4-0 maxon. • b. Left side; create gingival flap around #307; extract #307 (section with 701 l); remove intra-socket septa with 551 l; radiograph; measure socket depth; soak a collagen sponge in 100 μl of saline, apply collagen sponge to socket; close gingival flap with 4-0 maxon.
After the specimens were received, the specimens were processed, decalcified and embedded in paraffin. The mandible specimens were stained with Toluidine blue for osteoblast evaluations.
Histopathological assessment of the stained section was done without knowledge of treatment group. Qualitative observations included the analysis of the underlying bone, including any soft tissue, which may have come into contact with the test material formulation. Fibrous tissue encapsulation, cellular infiltrates and inflammatory responses at the repair site and the soft tissues were also evaluated.
Static histomorphometric analysis was performed on sections stained with toluidine blue stain to determine the percent area of bone in-growth present within the samples using an OsteoMeasure® image analysis system, and associate software (version 4.00c). The amount and quality of the newly formed bone was scored for 0-4, respectively, and evaluated collectively. Tissue reaction such as inflammation and presence of fibrous tissue were also evaluated using the respective scoring system.

[4] = system: human dental pulp cells; settings: cited from earlier work
[5] = system: dentin and pulp tissue of teeth with deep class V preparations; test: Indirect pulp capping study in dogs (deep class V preparations in maxillary teeth)
Method: Deep class V preparations were made without penetrating the pulp cavity on the buccal (labial) side of 8 maxillary teeth (2 premolars and 1 molar on each side of the oral cavity in one canine) in 10-month old Beagle dogs. A radiograph was taken to confirm location of the pulp cavity. The cavities (defects) were drilled perpendicular to the tooth axis (pulp cavity). […] The solution was left in the dry cavity for 2 minutes after which the base of the cavity was covered with Vitrebond and the teeth were sealed with composite.
The solution was left in the dry cavity for 2 minutes after which the cavities were filled with cotton and sealed with Cavit. The dogs in Treatment group 2 were re-treated 3× a week for 1 week (the teeth on the left side) or for 2 weeks (the teeth on the right side). […] The solution was left in the dry cavity for 2 minutes after which the cavities were filled with cotton and sealed with Cavit.
The teeth in treatment group 3 were used as negative (saline) or positive (Dycal) controls. Two of the 4 teeth per animal that were used as negative controls were treated with 2 uL saline. The solution was left in the dry cavity for 2 minutes after which the base of the cavity was covered with Vitrebond and the teeth were sealed with composite. The other 2 teeth used as negative control were treated for 15 sec with Scotchbond Etchant (Single Bond adhesive system), washed with water, air dried and treated with 2 uL saline. The solution was left in the dry cavity for 2 minutes after which the base of the cavity was covered with Single Bond, cured with light and the teeth were sealed with composite. The 2 teeth per animal in treatment group 3 that were used as a positive control were treated with Dycal and sealed with composite using standard operating procedures.
After the specimens were received, the specimens were processed, decalcified and embedded in paraffin. The maxilla specimens were stained with Haematoxylin and eosin (H&E) for new dentin formation evaluation. For immunohistochemistry evaluations, the sections were stained with TUNEL assay for evaluation of apoptosis (score 0-4), and CD45 antibody for inflammation evaluations.
Histopathological assessment of the stained section was done without knowledge of treatment group. Qualitative observations included the analysis of the tooth and underlying bone, including any soft tissue, which may have come into contact with the test material formulation. Cellular infiltrates (score 0-16) and inflammatory responses (score 0-4) at the repair site and the soft tissues were also evaluated.

[6] = system: osteoblastic cells; settings: comparable to growth factors such as BMP and IGF-1; cited from earlier work
[7] = system: bone fracture; settings: rats; local injection near the fracture site; cited from earlier work

Question: Which “proliferation and differentiation of the cells to osteoblasts” value [1] does the source give for TDLQERGDNDISPFSGDGQPFKD [AC-100] here?
Answer: Its value is “dose dependently induce proliferation and differentiation”.

Question: What about the “in vitro and in vivo bone formation activities” value [2] of the same sequence?
Answer: The value was “comparable to the same activities of fibroblast growth factor (FGF)”.

Question: And the “presence of connective tissue and provisional matrix in the defects” value ([3]; day 3 after the extraction)?
Answer: The value was “dose dependent increase”.

Question: What about the “tissue reaction in the extraction sockets” value ([3]; day 3 after the extraction) of the same sequence?
Answer: Its value is “dose dependent increase in tissue reaction”.

Question: What about the “percentage of connective tissue in the defects versus saline” value ([3]; day 28) of the same sequence?
Answer: The value was “comparable”.

Question: And the “quality of the new bone formed in the defect” value ([3]; day 28)?
Answer: The value was “dose dependently increases the quality of the new bone”.

Question: And the “rate with which the defect is filled with new bone” value ([3]; day 28)?
Answer: The value was “dose dependently decreases the rate”.

Question: And the “inflammatory response versus saline control” value ([3]; dog, in vivo)?
Answer: The value was “no significant difference”.

Question: And the “bone growth, multiple re-applications versus single application” value ([3]; re-applied directly in the extraction sockets)?
Answer: Its value is “not as effective as the single application regimen”.

Question: And the “bone growth (bone ingrowth)” value ([3]; single application at surgery, 1 mg and 10 mg on a collagen sponge, 28 days)?
Answer: The value was “caused stimulation of bone growth”.

Question: And the “proliferation and differentiation of human dental pulp cells” value [4]?
Answer: Its value is “potent activities on proliferation but not differentiation”.

Question: What about the “maximum stimulation of new dentin formation, relative to saline” value ([5]; 200 ug, 3 times per week for one week, day 28) of the same sequence?
Answer: Its value is 8 times.

Question: And the “new dentin formation compared with Dycal” value ([5]; 28 days post surgery, highest two doses of AC-100 (20 ug and 200 ug), depending on the application schedule)?
Answer: The value was “comparable to or better than Dycal”.

Question: What about the new dentin formation ([5]; 28 days post surgery, versus saline negative control, single and multiple application schedules) of the same sequence?
Answer: The new dentin formation was “dose dependent stimulation of new dentin formation”.

Question: What about the “number of apoptotic cells in the pulp” value ([5]; both 3 and 28 days post surgery, almost all doses applied) of the same sequence?
Answer: Its value is “dose dependently decreased the number of apoptotic cells”.

Question: And the “new dentin formation, multiple versus single application schedule” value ([5]; day 28)?
Answer: Its value is “worked significantly better than the single application one”.

Question: And the “new dentin formation, single application” value ([5]; highest dose of AC-100, single application, comparable to Dycal)?
Answer: The value was “marginal activity”.

Question: What about the “new dentin formation, sealing with Single Bond+composite versus Vitrebond+Composite” value ([5]; single application schedule, almost all doses of AC-100) of the same sequence?
Answer: Its value is “worked markedly better than sealing with Vitrebond+Composite”.

Question: And the “apoptotic and necrotic cell death in the pulp cavities (study summary)” value ([5]; summary of Example 1)?
Answer: The value was “almost complete reduction of inflammatory reactions as well as apoptotic or necrotic cell death”.

Question: And the “inflammatory reactions in the pulp cavities (study summary)” value ([5]; summary of Example 1)?
Answer: Its value is “almost complete reduction of inflammatory reactions”.

Question: And the “regeneration of new dentin in the defects (study summary)” value ([5]; summary of Example 1)?
Answer: Its value is “superior regeneration of new dentin tissue”.

Question: What about the “pulp tissue reaction at the highest dose” value ([5]; three days post surgery, 200 ug) of the same sequence?
Answer: The value was “completely abolishing the pulp reaction”.

Question: And the pulp inflammation ([5]; three days post surgery, almost all doses applied)?
Answer: Its pulp inflammation is “completely abolishing the pulp inflammation”.

Question: And the “pulp tissue reaction (inflammatory and fibrosis response)” value ([5]; three days post surgery, sealed with Single Bond or Vitrebond)?
Answer: The value was “dose dependent inhibition of the tissue reaction”.

Question: And the “proliferation and differentiation of osteoblastic cells” value [6]?
Answer: The value was “potent activities on proliferation and differentiation of osteoblastic cells”.

Question: What about the bone fracture healing [7] of the same sequence?
Answer: Its bone fracture healing is “stimulates bone fracture healing”.
